# Test results taken from patent US20230295157A1, “3-(1H-IMIDAZOL-2-YL)-2,3,8,8A-TETRAHYDROINDOLIZIN-5(1H)-ONE DERIVATIVES USEFUL AS FACTOR XIA INHIBITORS” (JANSSEN PHARMACEUTICA NV, priority 2020, published 2023).
# Where two headings read alike, the source gives them in different places.
# Columns and labels:
# Factor XIa = Factor XIa (Homo sapiens (Human), UniProt P03951); assay: Factor XIa inhibition assay (FLINT) utilizing a fluorophore-quencher pair peptide substrate; assay type: biochemical; conditions: 30 min preincubation, kinetic reads over 30 min, read-out: FXIa Kin Inh IC50
# Source text: Biological Example 1: Factor XIa Inhibition Assay Utilizing a Fluorophore-Quencher Pair Peptide Substrate
# A fluorescence intensity (FLINT) based assay was used to monitor inhibition of Factor XIa. The peptide substrate, 5Fam-[…]-K5Tamra (purchased from New England Peptide) was chosen based on the FXI sequence. Conversion of zymogen […]. The custom peptide used in this assay was based on the Arg146 cleavage site of FXI. The peptide substrate was designed with a fluorophore-quencher pair, where the fluorescence is quenched until FXIa cleaves the 8-mer peptide after the Arg residue.
# The Factor XIa FLINT assay was used with the following 5Fam-[…]-K5Tamra assay buffer: 50 mM Tris, pH 7.5, 100 mM NaCl, 5 mM CaCl2), 0.1 mg/mL BSA, 0.03% CHAPS. Assay buffer was prepared by mixing all ingredients fresh. 5Fam-[…]-K5Tamra peptide substrate was first prepared at 10 mM in 100% DMSO, then diluted to 3 mM in 100% DMSO. Assay buffer was then added directly to the 3 mM stock of substrate to prepare the 30 μM 2× working concentration (15 μM final concentration). The 2×Factor XIa stock solution was prepared by diluting 6.562 μM stock in 1×assay buffer for a 200 μM working stock solution (100 μM final concentration).
# Test compound(s) were run in an 11-point, 3-fold serial dilution with a final top compound concentration of 100 nM. Final DMSO in assay was 2%. FXIa was preincubated with compound for 30-minutes and then substrate was added to initiate the reaction. The assay was run with kinetic (KIN) reads at 5 min intervals over 30 minutes. The time course was linear using 100 μM FXIa greater than 30 minutes. More specifically, the assay was run as follows: • 100 nL of 0.01 mM test compound was dispensed into black 384 well non-binding Greiner BioOne 784900 plate for 0.1 μM final concentration; • 5 μL of 1×assay buffer was dispensed to column 24 (low control) and 5 μL 2×Factor XIa solution was dispensed to columns 1-23 (column 23 high control); • the plate was centrifuged with a “cover” plate at 500 rpm for 1 min • the plate was pre-incubated for 30 minutes at room temperature with plate covered; • 5 μL of 2×5Fam-[…]-K5Tamra peptide substrate was dispensed into the entire plate, columns 1-24; • the plate was centrifuged with a “cover” plate at 500 rpm for 1 min; • the plate was read monitoring fluorescence intensity on the BMG PHERAStar at room temperature, using fluorescence module 485 nm/520 nm.
# (§1) Percent inhibition (IC50) curves were generated per compound tested, and data was analyzed using a 4-parameter logistic fit using GeneData Screener. The relative fluorescence unit (RFU) values were normalized to percent inhibition using the following equation:
# % inhibition=((HC-LC)−(compound−LC)/(HC-LC))*100
# where LC—low control=mean signal of no Factor XIa or 100% inhibition of Factor XIa; HC—high control=mean signal of Factor XIa+5Fam-[…]-K5Tamra peptide substrate with DMSO only.
# (§2) An 11-point dose response curve for the test compound(s) was generated using GENDATA to determine IC50 value based on the following equation:
# Y=Bottom+(Top-Bottom)/(1+10^((logIC50-X)*HillSlope))
# where Y is the % inhibition in the presence of X inhibitor concentration, Top=high control=mean signal of Factor XIa+5Fam-[…] K5Tamra peptide substrate with DMSO only; Bottom=low control−mean signal of no Factor XIa or 100% inhibition of Factor XIa; HillSlope—Hill coefficient; and IC50=concentration of compound with 50% inhibition in relation to top/high control.
# Representative compounds of the present invention were tested according to the procedure described in Biological Example 1 and Biological Example 2 above, with results as listed in Table 3, below.
# human plasma kallikrein = human plasma kallikrein (Homo sapiens (Human), UniProt P03952); assay: Kallikrein inhibition assay (FLINT) utilizing a quenched AMC peptide substrate; assay type: biochemical; conditions: 30 min preincubation, read-out: Kallikrein Kin Inh IC50
# Method: Biological Example 2: Kallikrein Inhibition Assay Utilizing a Quenched AMC Peptide Substrate A fluorescence intensity (FLINT) based assay was used to monitor inhibition of human plasma kallikrein.
# The Kallikrein FLINT assay was used with the following Z-Gly-Pro-Arg-AMC assay buffer: 50 mM Tris, pH 7.5, 100 mM NaCl, 5 mM CaCl2), 0.1 mg/mL BSA, 0.03% CHAPS. Assay buffer was prepared by mixing all ingredients fresh. 2×Z-Gly-Pro-Arg-AMC peptide substrate was prepared by diluting 10 mM stock into 1×assay buffer for a 100 μM working concentration (50 μM final concentration). The 2×kallikrein stock solution was prepared by diluting 14.76 μM stock in 1×assay buffer for a 4 nM working stock solution (2 nM final concentration).
# Test compound(s) were run in an 11-point, 3-fold serial dilution with a final top compound concentration of 1 μM. Final DMSO in assay was 2%. Plasma kallikrein was pre-incubated for 30-minute with compound and then 50 μM substrate was added to initiate the reaction. The assay was run with kinetic (KIN) reads at 5 min intervals over 30 minutes. […] More specifically, the assay was run as follows: • 100 nL of 0.1 mM test compound was dispensed into black 384-well non-binding Greiner BioOne 784900 plate for 1 μM final concentration; • 5 μL of 1×assay buffer was dispensed to columns 24 (low control) and 5 μL 2×human kallikrein enzyme solution was dispensed to columns 1-23 (column 23 high control); • the plate was centrifuged with a “cover” plate at 500 rpm for 1 min • the plate was pre-incubated for 30 minutes at room temperature with plate covered; • 5 μL of 2×Z-Gly-Pro-Arg-AMC peptide substrate was dispensed into the entire plate, columns 1-24; • the plate was centrifuged with a “cover” plate at 500 rpm for 1 min; • the plate was read monitoring fluorescence intensity on the BMG PHERAStar at room temperature, using fluorescence module 340 nm/440 nm.
# as §1
# % inhibition=((HC-LC)−(compound-LC)\(HC-LC))*100 where LC—low control=mean signal of human kallikrein enzyme or 100% inhibition of human kallikrein enzyme; HC—high control=mean signal of Factor XIa+Z-Gly-Pro-Arg-AMC peptide substrate with DMSO only.
# as §2
# Y=Bottom+(Top-Bottom)/(1+10^((logIC50−X)*HillSlope)) where Y is the % inhibition in the presence of X inhibitor concentration, Top=high control=mean signal of human kallikrein enzyme+Z-Gly-Pro-Arg-AMC peptide substrate with DMSO only; Bottom=low control−mean signal of no human kallikrein enzyme or 100% inhibition of human kallikrein enzyme; HillSlope—Hill coefficient; and IC50=concentration of compound with 50% inhibition in relation to top/high control.
# [1] = 5Fam-KLTRAETV-K5Tamra substrate 15 μM
# [2] = kinetic reads over 30 min, Z-Gly-Pro-Arg-AMC substrate 50 μM
# human plasma kallikrein, sequence (P03952 391-638): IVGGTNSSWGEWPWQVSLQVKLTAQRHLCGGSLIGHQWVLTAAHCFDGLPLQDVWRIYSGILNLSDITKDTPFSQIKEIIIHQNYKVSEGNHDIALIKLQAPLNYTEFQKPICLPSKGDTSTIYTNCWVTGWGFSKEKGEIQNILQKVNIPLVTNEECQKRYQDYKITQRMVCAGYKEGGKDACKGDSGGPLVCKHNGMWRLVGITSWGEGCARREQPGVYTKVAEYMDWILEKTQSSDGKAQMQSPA
# human plasma kallikrein, sequence (P03952 20-390 partner): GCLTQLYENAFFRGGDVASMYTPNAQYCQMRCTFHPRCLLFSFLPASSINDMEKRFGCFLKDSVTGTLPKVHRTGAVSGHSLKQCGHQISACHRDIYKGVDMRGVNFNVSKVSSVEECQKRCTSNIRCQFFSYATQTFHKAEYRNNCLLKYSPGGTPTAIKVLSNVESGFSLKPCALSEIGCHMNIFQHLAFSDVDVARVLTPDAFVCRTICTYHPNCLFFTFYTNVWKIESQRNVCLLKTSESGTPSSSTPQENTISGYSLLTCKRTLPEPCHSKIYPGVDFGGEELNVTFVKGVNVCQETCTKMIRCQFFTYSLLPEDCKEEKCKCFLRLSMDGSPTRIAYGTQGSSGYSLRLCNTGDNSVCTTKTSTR
# Factor XIa, sequence (P03951 388-625): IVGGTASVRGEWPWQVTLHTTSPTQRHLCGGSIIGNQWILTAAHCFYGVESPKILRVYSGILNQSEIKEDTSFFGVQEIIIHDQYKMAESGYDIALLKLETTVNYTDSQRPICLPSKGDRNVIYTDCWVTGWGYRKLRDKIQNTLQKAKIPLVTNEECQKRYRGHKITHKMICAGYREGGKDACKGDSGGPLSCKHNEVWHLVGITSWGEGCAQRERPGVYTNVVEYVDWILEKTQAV
# Factor XIa, sequence (P03951 19-387 partner): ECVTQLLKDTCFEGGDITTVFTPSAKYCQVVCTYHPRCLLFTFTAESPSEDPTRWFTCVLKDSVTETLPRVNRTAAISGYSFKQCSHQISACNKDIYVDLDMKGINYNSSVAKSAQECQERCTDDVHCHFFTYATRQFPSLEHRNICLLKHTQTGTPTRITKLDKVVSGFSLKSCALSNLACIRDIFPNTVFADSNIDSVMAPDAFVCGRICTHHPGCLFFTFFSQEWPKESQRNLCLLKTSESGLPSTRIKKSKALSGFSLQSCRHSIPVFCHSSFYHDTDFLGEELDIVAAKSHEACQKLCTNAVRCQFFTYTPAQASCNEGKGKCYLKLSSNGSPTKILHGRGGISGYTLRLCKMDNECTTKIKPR
IC50 (Factor XIa; [1]) [nM],IC50 (human plasma kallikrein; [2]) [µM],IC50 (Factor XIa; 5Fam-[…]-K5Tamra substrate 15 μM) [nM],"IC50 (human plasma kallikrein; μM, kinetic reads) [µM]",Structure (SMILES)
12.6,0.0679,–,–,"Nc1cc(-c2[nH]c([C@@H]3CC[C@@H]4CC(c5c(-n6cnnn6)ccc(Cl)c5F)=CC(=O)N43)nc2F)c(Cl)cn1 [Example 1, (3S,8aR)-3-[5-(2-Amino-5-chloro-4-pyridyl)-4-fluoro-1H-imidazol-2-yl]-7-[3-chloro-2-fluoro-6-(tetrazol-1-yl)phenyl]-2,3,8,8a-tetrahydro-1H-indolizin-5-one]"
3.8,0.0065,–,–,"O=C1C=C(c2c(-n3cnnn3)ccc(Cl)c2F)C[C@H]2CC[C@@H](c3ncc(-c4ccc5[nH]ccc5c4)[nH]3)N12 [Example 14, (3S,8aR)-3-(5-(1H-indol-5-yl)-1H-imidazol-2-yl)-7-(3-chloro-2-fluoro-6-(1H-tetrazol-1-yl)phenyl)-2,3,8,8a-tetrahydroindolizin-5(1H)-one]"
–,0.0019,0.5,–,O=C1Nc2ccc(-c3cnc([C@@H]4CC[C@H]5CC(c6c(-n7cnnn7)ccc(Cl)c6F)=CC(=O)N54)[nH]3)cc2CO1 (relative stereo) [Example 278]
4.6,0.0351,–,–,"C[C@H](O)c1nccc(-c2cnc([C@@H]3CC[C@@H]4CC(c5c(-n6cnnn6)ccc(Cl)c5F)=CC(=O)N43)[nH]2)c1F [Example 186, (3S,8aR)-7-(3-chloro-2-fluoro-6-(1H-tetrazol-1-yl)phenyl)-3-(5-(3-fluoro-2-((S)-1-hydroxyethyl)pyridin-4-yl)-1H-imidazol-2-yl)-2,3,8,8a-tetrahydroindolizin-5(1H)-one]"
0.3,0.003,–,–,"CC(C)(O)CNc1nccc(-c2[nH]c([C@@H]3CC[C@@H]4CC(c5cc(Cl)ccc5-n5cnnn5)=CC(=O)N43)nc2F)c1F [Example 84, (3S,8aR)-7-[5-chloro-2-(tetrazol-1-yl)phenyl]-3-[4-fluoro-5-[3-fluoro-2-[(2-hydroxy-2-methyl-propyl)amino]-4-pyridyl]-1H-imidazol-2-yl]-2,3,8,8a-tetrahydro-1H-indolizin-5-one]"
2.9,0.0062,–,–,"O=C1C=C(c2c(-n3cc(C(F)(F)F)nn3)ccc(Cl)c2F)C[C@@H]2CC[C@H](c3ncc(-c4c[nH]c5ncccc45)[nH]3)N12 (single isomer, unassigned) [Example 140, (3*R,8aS)-3-(5-(1H-pyrrolo[2,3-b]pyridin-3-yl)-1H-imidazol-2-yl)-7-(3-chloro-2-fluoro-6-(4-(trifluoromethyl)-1H-1,2,3-triazol-1-yl)phenyl)-2,3,8,8a-tetrahydroindolizin-5(1H)-one]"
1.1,0.0021,–,–,"COc1ccc(-c2c[nH]c([C@@H]3CC[C@H]4CC(c5c(-n6cnnn6)ccc(Cl)c5F)=CC(=O)N43)n2)c(NC(=O)C2CC2)c1 [Example 264, N-[2-[2-[(3S,8aS)-7-[3-Chloro-2-fluoro-6-(tetrazol-1-yl)phenyl]-5-oxo-2,3,8,8a-tetrahydro-1H-indolizin-3-yl]-1H-imidazol-4-yl]-5-methoxy-phenyl]cyclopropanecarboxamide]"
0.7,0.0026,–,–,"CCC(=O)Nc1ccccc1-c1c[nH]c([C@@H]2CC[C@@H]3CC(c4c(-n5cnnn5)ccc(Cl)c4F)=CC(=O)N32)n1 (single isomer, unassigned) [Example 295, N-(2-(2-((3S,8aR*)-7-(3-Chloro-2-fluoro-6-(1H-tetrazol-1-yl)phenyl)-5-oxo-1,2,3,5,8,8a-hexahydroindolizin-3-yl)-1H-imidazol-4-yl)phenyl)propionamide]"
3.2,0.0095,–,–,"COC(=O)c1nccc(-c2cnc([C@@H]3CC[C@@H]4CC(c5c(-n6cnnn6)ccc(Cl)c5F)=CC(=O)N43)[nH]2)c1F [Example 52, Methyl 4 [2-[(3S,8aR)-7-[3-chloro-2-fluoro-6-(tetrazol-1-yl)phenyl]-5-oxo-2,3,8,8a-tetrahydro-1H-indolizin-3-yl]-1H-imidazol-5-yl]-3-fluoro-pyridine-2-carboxylate]"
0.2,0.0004,–,–,"O=C1C=C(c2c(-n3cnnn3)ccc(Cl)c2F)C[C@@H]2CC[C@@H](c3ncc(-c4ccc5[nH]c(=O)ccc5c4)[nH]3)N12 [Example 270, 6-[2-[(3S,8aS)-7-[3-Chloro-2-fluoro-6-(tetrazol-1-yl)phenyl]-5-oxo-2,3,8,8a-tetrahydro-1H-indolizin-3-yl]-1H-imidazol-5-yl]-1H-quinolin-2-one]"
> 100,0.0178,–,–,"NC(=O)c1cc(-c2cnc([C@@H]3CC[C@H]4CC(c5c(-n6cnnn6)ccc(Cl)c5F)=CC(=O)N43)[nH]2)ccc1F [Example 232, 5-(2-((3S,8aS)-7-(3-Chloro-2-fluoro-6-(1H-tetrazol-1-yl)phenyl)-5-oxo-1,2,3,5,8,8a-hexahydroindolizin-3-yl)-1H-imidazol-5-yl)-2-fluorobenzamide]"
211,–,–,7.3,"Cn1ccnc1-c1c[nH]c([C@@H]2CCC3CC(c4c(-n5cnnn5)ccc(Cl)c4F)=CC(=O)N32)n1 (stereo partly drawn) [Example 334, (3S)-7-(3-chloro-2-Fluoro-6-(1H-tetrazol-1-yl)phenyl)-3-(1-methyl-1H,1′H-[2,4′-biimidazol]-2′-yl)-2,3,8,8a-tetrahydroindolizin-5(1H)-one]"
